Assays:
panel of 442 kinases [1] = molecular target: T1, panel of 442 kinases (Homo sapiens, UniProt Q8IY84); assay type: binding; details: Compound Concentration 10 µM
T1 construct: purchased KINOMEscan
Description: (§1) We assessed the selectivity of members of this scaffold using the KINOMEscan methodology across a near comprehensive panel of 442 kinases [[18,27]].

panel of 442 kinases [2] = molecular target: T2, panel of 442 kinases (Homo sapiens, UniProt O75747); assay type: binding; details: Compound Concentration 10 µM
T2 construct: purchased KINOMEscan
T2 sequence (O75747 1-1486): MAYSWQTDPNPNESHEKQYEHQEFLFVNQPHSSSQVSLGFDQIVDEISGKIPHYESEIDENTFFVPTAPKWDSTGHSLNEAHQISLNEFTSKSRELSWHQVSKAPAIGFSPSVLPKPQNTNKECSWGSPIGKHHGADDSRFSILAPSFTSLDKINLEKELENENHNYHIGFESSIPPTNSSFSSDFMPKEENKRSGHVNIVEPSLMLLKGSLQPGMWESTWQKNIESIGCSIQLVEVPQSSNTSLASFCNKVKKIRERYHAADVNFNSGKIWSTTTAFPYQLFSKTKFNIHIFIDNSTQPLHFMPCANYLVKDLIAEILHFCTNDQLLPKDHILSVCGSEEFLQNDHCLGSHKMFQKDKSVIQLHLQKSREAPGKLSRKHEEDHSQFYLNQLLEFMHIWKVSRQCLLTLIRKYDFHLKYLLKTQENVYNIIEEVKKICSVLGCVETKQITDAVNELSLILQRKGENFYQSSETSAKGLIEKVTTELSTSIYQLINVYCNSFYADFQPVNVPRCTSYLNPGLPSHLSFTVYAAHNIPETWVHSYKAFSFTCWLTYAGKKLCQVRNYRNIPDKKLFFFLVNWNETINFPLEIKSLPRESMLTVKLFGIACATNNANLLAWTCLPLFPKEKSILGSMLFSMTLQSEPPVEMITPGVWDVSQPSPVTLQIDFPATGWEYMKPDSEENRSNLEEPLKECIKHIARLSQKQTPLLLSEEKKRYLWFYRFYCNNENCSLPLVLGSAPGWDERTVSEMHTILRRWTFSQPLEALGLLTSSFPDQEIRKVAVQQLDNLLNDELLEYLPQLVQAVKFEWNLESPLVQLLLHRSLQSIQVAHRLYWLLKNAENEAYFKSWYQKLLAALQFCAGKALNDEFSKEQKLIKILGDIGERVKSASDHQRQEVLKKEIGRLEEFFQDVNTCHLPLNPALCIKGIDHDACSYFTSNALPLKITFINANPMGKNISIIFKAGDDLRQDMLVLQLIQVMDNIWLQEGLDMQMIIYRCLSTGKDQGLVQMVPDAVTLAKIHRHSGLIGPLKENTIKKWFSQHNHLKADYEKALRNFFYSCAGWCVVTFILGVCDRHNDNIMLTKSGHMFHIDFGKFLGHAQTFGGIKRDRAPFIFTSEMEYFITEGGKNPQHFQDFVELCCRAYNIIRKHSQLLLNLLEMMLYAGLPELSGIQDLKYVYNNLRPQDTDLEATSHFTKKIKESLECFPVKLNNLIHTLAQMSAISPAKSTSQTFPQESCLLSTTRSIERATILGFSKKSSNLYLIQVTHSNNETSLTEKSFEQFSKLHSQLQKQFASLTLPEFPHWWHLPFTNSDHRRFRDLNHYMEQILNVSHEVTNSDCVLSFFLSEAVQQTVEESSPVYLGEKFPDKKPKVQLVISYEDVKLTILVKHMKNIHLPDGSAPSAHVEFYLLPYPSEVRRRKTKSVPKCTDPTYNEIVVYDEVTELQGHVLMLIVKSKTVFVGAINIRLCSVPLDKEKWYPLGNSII
Description: as §1

T1 sequence (Q8IY84 whole entry): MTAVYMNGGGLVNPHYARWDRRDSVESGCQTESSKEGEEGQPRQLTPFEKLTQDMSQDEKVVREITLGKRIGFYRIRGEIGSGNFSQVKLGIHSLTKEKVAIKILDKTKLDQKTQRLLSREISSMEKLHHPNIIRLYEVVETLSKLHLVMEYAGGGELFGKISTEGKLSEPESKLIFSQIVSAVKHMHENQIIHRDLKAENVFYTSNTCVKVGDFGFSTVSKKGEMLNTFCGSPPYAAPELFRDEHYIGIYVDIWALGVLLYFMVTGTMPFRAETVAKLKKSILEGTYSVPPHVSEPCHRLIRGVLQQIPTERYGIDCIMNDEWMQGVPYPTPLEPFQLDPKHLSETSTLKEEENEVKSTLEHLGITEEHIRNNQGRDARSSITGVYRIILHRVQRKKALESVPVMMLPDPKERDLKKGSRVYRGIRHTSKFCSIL

Row | Structure (SMILES) | KINOMEscan: NIM1 (panel of 442 kinases [1]) | KINOMEscan: PIK3C2G (panel of 442 kinases [2])
1 | COc1cc(C(=O)N2CCC(N3CCN(C)CC3)CC2)ccc1Nc1ncc2c(n1)N(C)c1ccccc1C(=O)N2C [15 (LRRK2-IN-1)] | 100 | 100
2 | COc1cc(C(=O)N2CCC(N3CCN(C)CC3)CC2)ccc1Nc1ncc2c(n1)N(C1CCCC1)c1ccccc1C(=O)N2C [Compound 25, 11-cyclopentyl-2-((2-methoxy-4-(4-(4-methylpiperazin-1-yl)piperidine-1-carbonyl)phenyl)amino)-5-methyl-5H-benzo[e]pyrimido[5,4-b][1,4]diazepin-6(11H)-one] | 100 | 100
3 | CCOc1cc(C(=O)N2CCC(N3CCN(C)CC3)CC2)ccc1Nc1ncc2c(n1)N(C1CCCC1)c1ccccc1C(=O)N2C [Compound 26] | 100 | 99
